Source: paper PMC9492542, “Brain-restricted mTOR inhibition with binary pharmacology” (Nature, 2022)
Read-outs that look alike come from different tables or passages of the source.

What was measured:
476 purified kinases [1] = molecular target: 476 purified kinases (Homo sapiens, UniProt Q52WX2); settings: ZLYTE
Method: (§1) In vitro kinase inhibition assays were performed by SelectScreen Services (Thermo Fisher Scientific) using either Z’-LYTE (mTOR, Src, Csk, EGFR, HER2 and HGK), Adapta (LRRK2) or LanthaScreen (DDR2) assay format (standardized protocols can be accessed on the SelectScreen website: https://www.thermofisher.com/us/en/home/products-and-services/services/custom-services/screening-and-profiling-services/selectscreen-profiling-service/selectscreen-kinase-profiling-service.html. When indicated, recombinant FKBP12 protein was added to the assay mixture to a final concentration of 10 µM.

476 purified kinases [2] = molecular target: 476 purified kinases (Homo sapiens, UniProt Q00535); settings: ZLYTE
Method: as §1

476 purified kinases [3] = molecular target: 476 purified kinases (Homo sapiens, UniProt Q8N4C8); settings: ZLYTE
476 purified kinases (Homo sapiens, UniProt Q8N4C8), sequence (Q8N4C8 whole entry): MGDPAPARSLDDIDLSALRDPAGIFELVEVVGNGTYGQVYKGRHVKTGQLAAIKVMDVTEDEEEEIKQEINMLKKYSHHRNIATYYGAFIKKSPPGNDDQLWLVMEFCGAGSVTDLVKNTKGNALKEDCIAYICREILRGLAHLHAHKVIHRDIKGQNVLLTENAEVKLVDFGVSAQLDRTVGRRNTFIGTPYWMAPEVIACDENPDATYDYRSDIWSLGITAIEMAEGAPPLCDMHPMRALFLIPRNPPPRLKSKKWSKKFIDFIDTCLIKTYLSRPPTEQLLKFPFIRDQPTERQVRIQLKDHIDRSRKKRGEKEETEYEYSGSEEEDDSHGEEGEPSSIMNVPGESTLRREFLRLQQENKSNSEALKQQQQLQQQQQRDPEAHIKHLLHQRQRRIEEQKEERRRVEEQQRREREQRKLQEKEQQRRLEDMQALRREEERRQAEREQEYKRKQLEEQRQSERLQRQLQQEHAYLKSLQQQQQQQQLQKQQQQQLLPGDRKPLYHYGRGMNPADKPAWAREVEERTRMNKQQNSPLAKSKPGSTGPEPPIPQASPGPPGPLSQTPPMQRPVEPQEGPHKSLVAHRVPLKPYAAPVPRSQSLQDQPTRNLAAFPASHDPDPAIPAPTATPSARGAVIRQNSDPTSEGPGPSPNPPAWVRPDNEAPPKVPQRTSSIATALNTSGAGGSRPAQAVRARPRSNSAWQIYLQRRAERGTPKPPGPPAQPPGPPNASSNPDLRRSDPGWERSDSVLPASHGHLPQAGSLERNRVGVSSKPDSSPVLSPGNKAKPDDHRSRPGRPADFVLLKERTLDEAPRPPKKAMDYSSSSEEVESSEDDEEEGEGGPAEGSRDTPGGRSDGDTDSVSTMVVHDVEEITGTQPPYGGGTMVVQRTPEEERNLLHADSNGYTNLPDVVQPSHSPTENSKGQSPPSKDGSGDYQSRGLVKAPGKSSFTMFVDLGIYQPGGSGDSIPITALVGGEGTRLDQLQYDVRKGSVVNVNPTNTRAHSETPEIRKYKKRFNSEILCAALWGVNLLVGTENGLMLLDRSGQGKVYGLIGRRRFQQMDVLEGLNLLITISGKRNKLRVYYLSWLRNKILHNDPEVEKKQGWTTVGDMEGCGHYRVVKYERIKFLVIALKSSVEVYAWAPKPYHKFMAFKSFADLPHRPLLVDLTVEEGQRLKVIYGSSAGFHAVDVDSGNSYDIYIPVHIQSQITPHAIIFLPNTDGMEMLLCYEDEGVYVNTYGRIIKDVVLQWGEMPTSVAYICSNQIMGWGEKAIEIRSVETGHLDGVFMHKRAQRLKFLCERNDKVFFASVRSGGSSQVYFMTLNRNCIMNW
Method: as §1

476 purified kinases [4] = molecular target: 476 purified kinases (Homo sapiens, UniProt Q00537); settings: ZLYTE
476 purified kinases (Homo sapiens, UniProt Q00537), sequence (Q00537 whole entry): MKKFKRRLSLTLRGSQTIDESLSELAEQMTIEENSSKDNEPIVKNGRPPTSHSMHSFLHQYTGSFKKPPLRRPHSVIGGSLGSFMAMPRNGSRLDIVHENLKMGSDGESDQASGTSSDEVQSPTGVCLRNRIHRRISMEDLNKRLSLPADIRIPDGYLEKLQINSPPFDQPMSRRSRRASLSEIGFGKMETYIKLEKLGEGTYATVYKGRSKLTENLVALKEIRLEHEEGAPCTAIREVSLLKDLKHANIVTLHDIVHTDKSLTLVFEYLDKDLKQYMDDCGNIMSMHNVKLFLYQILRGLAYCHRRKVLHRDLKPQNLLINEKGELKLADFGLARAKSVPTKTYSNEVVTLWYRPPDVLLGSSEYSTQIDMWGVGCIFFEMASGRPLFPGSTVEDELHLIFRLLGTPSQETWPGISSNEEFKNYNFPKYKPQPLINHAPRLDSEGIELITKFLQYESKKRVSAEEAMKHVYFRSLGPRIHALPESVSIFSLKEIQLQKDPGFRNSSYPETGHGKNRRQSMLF
Method: as §1

476 purified kinases [5] = molecular target: 476 purified kinases (Homo sapiens, UniProt Q9Y6E0); settings: ZLYTE
476 purified kinases (Homo sapiens, UniProt Q9Y6E0), sequence (Q9Y6E0 whole entry): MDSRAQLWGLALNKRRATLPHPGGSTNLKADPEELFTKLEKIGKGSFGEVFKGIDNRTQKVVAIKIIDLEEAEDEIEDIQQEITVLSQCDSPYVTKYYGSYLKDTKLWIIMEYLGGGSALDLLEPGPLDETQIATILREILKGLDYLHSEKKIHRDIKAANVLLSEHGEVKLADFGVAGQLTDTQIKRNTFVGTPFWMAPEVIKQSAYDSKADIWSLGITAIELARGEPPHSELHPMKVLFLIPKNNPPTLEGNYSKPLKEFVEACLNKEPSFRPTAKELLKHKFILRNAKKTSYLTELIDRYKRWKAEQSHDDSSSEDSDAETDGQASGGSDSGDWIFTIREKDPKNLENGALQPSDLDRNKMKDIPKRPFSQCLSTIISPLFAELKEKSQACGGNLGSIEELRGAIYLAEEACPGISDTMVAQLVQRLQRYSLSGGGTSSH
Method: as §1

476 purified kinases [6] = molecular target: 476 purified kinases (Homo sapiens, UniProt Q8WTQ7); settings: ZLYTE
Method: as §1

476 purified kinases [7] = molecular target: 476 purified kinases (Homo sapiens, UniProt Q8WXR4)
Method: as §1

476 purified kinases [8] = molecular target: 476 purified kinases (Homo sapiens, UniProt O76039); settings: ZLYTE
Method: as §1

476 purified kinases [9] = molecular target: 476 purified kinases (Homo sapiens, UniProt Q15208)
Method: as §1

476 purified kinases [10] = molecular target: 476 purified kinases (Homo sapiens, UniProt Q96GX5)
Method: as §1

476 purified kinases [11] = molecular target: 476 purified kinases (Homo sapiens, UniProt Q86YV6)
Method: as §1

476 purified kinases [12] = molecular target: 476 purified kinases (Homo sapiens, UniProt Q96S53)
476 purified kinases (Homo sapiens, UniProt Q96S53), sequence (Q96S53 whole entry): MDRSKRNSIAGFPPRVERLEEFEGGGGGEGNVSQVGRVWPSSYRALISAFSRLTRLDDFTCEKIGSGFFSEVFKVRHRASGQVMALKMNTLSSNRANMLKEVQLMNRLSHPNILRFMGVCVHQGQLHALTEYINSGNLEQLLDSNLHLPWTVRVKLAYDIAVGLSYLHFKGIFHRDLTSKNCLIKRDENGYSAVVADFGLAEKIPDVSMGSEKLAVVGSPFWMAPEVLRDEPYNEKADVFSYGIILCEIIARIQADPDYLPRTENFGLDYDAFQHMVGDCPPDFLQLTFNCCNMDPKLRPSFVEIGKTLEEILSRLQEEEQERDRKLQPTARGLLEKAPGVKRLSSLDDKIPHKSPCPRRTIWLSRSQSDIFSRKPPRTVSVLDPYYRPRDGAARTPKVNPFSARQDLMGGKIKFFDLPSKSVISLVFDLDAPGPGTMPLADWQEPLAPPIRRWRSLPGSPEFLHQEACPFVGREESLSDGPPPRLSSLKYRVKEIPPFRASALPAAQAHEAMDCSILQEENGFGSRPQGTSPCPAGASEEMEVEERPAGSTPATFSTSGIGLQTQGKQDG
Method: as §1

476 purified kinases [13] = molecular target: 476 purified kinases (Homo sapiens, UniProt Q9H2X6); settings: ZLYTE
Method: as §1

476 purified kinases [14] = molecular target: 476 purified kinases (Homo sapiens, UniProt Q9NR20); settings: ZLYTE
Method: as §1

476 purified kinases [15] = molecular target: 476 purified kinases (Homo sapiens, UniProt P48426)
Method: as §1

476 purified kinases [16] = molecular target: 476 purified kinases (Homo sapiens, UniProt Q56UN5); settings: ZLYTE
476 purified kinases (Homo sapiens, UniProt Q56UN5), sequence (Q56UN5 whole entry): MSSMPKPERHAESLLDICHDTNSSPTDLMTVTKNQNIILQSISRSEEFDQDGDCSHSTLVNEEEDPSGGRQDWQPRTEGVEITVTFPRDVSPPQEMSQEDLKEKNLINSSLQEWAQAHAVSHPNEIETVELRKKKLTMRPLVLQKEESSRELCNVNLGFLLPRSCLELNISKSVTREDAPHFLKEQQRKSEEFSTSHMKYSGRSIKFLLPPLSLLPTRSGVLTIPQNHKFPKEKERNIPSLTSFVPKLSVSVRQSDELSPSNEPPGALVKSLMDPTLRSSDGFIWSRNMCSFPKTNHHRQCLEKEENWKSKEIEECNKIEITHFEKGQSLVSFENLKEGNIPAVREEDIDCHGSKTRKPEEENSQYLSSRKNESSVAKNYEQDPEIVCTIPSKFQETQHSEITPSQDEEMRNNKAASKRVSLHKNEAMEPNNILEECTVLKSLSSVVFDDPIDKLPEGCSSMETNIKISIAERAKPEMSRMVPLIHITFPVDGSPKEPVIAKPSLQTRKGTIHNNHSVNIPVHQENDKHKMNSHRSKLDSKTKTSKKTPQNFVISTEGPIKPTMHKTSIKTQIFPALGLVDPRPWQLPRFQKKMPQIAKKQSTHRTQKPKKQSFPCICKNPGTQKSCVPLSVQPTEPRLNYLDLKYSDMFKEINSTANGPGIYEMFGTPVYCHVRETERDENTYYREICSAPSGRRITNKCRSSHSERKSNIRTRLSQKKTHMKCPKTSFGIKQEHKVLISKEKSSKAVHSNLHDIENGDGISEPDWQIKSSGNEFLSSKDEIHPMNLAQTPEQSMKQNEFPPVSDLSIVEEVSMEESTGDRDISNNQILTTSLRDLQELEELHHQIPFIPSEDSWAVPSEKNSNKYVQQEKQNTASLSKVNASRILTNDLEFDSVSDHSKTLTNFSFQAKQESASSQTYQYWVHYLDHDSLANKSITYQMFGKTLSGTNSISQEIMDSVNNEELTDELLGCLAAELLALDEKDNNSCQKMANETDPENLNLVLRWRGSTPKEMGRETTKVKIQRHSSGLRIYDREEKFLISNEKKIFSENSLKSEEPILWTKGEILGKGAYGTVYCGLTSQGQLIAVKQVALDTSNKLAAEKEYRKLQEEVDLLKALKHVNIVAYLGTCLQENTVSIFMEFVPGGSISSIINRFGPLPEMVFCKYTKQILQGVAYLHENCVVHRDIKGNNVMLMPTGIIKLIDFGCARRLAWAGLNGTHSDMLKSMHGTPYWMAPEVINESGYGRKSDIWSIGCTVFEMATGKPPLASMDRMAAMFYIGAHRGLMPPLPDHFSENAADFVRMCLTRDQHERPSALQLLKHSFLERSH
Method: as §1

476 purified kinases [17] = molecular target: 476 purified kinases (Homo sapiens, UniProt Q86Z02); settings: ZLYTE; 10 nM
Method: as §1

476 purified kinases [18] = molecular target: 476 purified kinases (Homo sapiens, UniProt O75385)
Method: as §1

476 purified kinases [19] = molecular target: 476 purified kinases (Homo sapiens, UniProt Q92630)
Method: as §1

476 purified kinases [20] = molecular target: 476 purified kinases (Homo sapiens, UniProt P17612); settings: ZLYTE
Method: as §1

476 purified kinases [21] = molecular target: 476 purified kinases (Homo sapiens, UniProt P52564, S207E/T211E)
Method: as §1

476 purified kinases [22] = molecular target: 476 purified kinases (Homo sapiens, UniProt P35916); settings: ZLYTE
Method: as §1

476 purified kinases [23] = molecular target: 476 purified kinases (Homo sapiens, UniProt Q09013)
Method: as §1

476 purified kinases [24] = molecular target: 476 purified kinases (Homo sapiens, UniProt P43405); settings: ZLYTE
Method: as §1

476 purified kinases [25] = molecular target: 476 purified kinases (Homo sapiens, UniProt O15075); settings: ZLYTE
Method: as §1

476 purified kinases [26] = molecular target: 476 purified kinases (Homo sapiens, UniProt P23443); settings: ZLYTE
Method: as §1

476 purified kinases [27] = molecular target: 476 purified kinases (Homo sapiens, UniProt Q13557); settings: ZLYTE
476 purified kinases (Homo sapiens, UniProt Q13557), sequence (Q13557 whole entry): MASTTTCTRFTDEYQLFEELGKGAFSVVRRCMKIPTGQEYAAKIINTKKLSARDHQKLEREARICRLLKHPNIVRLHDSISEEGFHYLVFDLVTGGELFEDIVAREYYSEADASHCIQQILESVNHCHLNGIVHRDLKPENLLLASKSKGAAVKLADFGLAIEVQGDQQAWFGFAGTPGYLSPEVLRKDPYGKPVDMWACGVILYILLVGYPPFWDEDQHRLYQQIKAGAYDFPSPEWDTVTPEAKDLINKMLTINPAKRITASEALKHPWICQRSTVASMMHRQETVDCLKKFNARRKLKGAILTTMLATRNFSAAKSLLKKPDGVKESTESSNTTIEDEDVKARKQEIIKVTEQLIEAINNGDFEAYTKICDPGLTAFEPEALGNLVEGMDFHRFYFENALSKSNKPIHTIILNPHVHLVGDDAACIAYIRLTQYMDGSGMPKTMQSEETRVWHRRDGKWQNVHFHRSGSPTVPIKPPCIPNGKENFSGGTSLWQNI
Method: as §1

476 purified kinases [28] = molecular target: 476 purified kinases (Homo sapiens, UniProt Q99759)
Method: as §1

476 purified kinases (Homo sapiens, UniProt Q00535), sequence (Q00535 whole entry): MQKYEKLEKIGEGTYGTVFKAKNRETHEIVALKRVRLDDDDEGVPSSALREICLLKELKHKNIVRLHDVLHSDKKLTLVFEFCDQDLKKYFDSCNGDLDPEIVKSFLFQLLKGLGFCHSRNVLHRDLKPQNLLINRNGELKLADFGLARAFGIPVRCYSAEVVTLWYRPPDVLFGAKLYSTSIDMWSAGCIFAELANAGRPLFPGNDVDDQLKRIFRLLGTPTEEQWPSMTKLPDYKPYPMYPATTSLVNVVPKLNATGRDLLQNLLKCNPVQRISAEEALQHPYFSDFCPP

Cc1nc(Nc2ncc(C(=O)Nc3c(C)cccc3Cl)s2)cc(N2CCN(CCO)CC2)n1 [Dasatinib]
SBK1 (kinase profiling) (476 purified kinases [1]; 10 nM): 3
SBK1 (kinase profiling) (476 purified kinases [1]; 10 nM + 10 µM FKBP12): 10
CDK5/p25 (kinase profiling) (476 purified kinases [2]; 10 nM): 2
CDK5/p35 (kinase profiling) (476 purified kinases [2]; 10 nM): 4
CDK5/p25 (kinase profiling) (476 purified kinases [2]; 10 nM + 10 µM FKBP12): 2
CDK5/p35 (kinase profiling) (476 purified kinases [2]; 10 nM + 10 µM FKBP12): 2
MINK1 (kinase profiling) (476 purified kinases [3]; 10 nM): 10
MINK1 (kinase profiling) (476 purified kinases [3]; 10 nM + 10 µM FKBP12): 10
CDK17/cyclin Y (kinase profiling) (476 purified kinases [4]; 10 nM): 7
CDK17/cyclin Y (kinase profiling) (476 purified kinases [4]; 10 nM + 10 µM FKBP12): 8
STK24 (MST3) (kinase profiling) (476 purified kinases [5]; 10 nM): 13
STK24 (MST3) (kinase profiling) (476 purified kinases [5]; 10 nM + 10 µM FKBP12): 20
GRK7 (kinase profiling) (476 purified kinases [6]; 10 nM): 3
GRK7 (kinase profiling) (476 purified kinases [6]; 10 nM + 10 µM FKBP12): -1
MYO3B (MYO3 beta) (LanthaScreen Binding) (476 purified kinases [7]; 10 nM compound): 3
MYO3B (MYO3 beta) (LanthaScreen Binding) (476 purified kinases [7]; 10 nM compound + 10 µM FKBP12): 8
CDKL5 (kinase profiling) (476 purified kinases [8]; 10 nM): 5
CDKL5 (kinase profiling) (476 purified kinases [8]; 10 nM + 10 µM FKBP12): 7
STK38 (NDR) (LanthaScreen Binding) (476 purified kinases [9]; 10 nM compound): 0
STK38 (NDR) (LanthaScreen Binding) (476 purified kinases [9]; 10 nM compound + 10 µM FKBP12): 2
MASTL (LanthaScreen Binding) (476 purified kinases [10]; 10 nM compound): 0
MASTL (LanthaScreen Binding) (476 purified kinases [10]; 10 nM compound + 10 µM FKBP12): -1
MYLK4 (LanthaScreen Binding) (476 purified kinases [11]; 10 nM compound): 3
MYLK4 (LanthaScreen Binding) (476 purified kinases [11]; 10 nM compound + 10 µM FKBP12): 11
TESK2 (LanthaScreen Binding) (476 purified kinases [12]; 10 nM compound): 30
TESK2 (LanthaScreen Binding) (476 purified kinases [12]; 10 nM compound + 10 µM FKBP12): 35
HIPK2 (kinase profiling) (476 purified kinases [13]; 10 nM): 8
HIPK2 (kinase profiling) (476 purified kinases [13]; 10 nM + 10 µM FKBP12): 11
DYRK4 (kinase profiling) (476 purified kinases [14]; 10 nM): 1
DYRK4 (kinase profiling) (476 purified kinases [14]; 10 nM + 10 µM FKBP12): 7
PIP4K2A (Adapta) (476 purified kinases [15]; 10 nM compound): -15
PIP4K2A (Adapta) (476 purified kinases [15]; 10 nM compound + 10 µM FKBP12): 4
MAP3K19 (YSK4) (kinase profiling) (476 purified kinases [16]; 10 nM): 3
MAP3K19 (YSK4) (kinase profiling) (476 purified kinases [16]; 10 nM + 10 µM FKBP12): -1
HIPK1 (Myak) (kinase profiling) (476 purified kinases [17]): 1
ULK1 (LanthaScreen Binding) (476 purified kinases [18]; 10 nM compound): -2
ULK1 (LanthaScreen Binding) (476 purified kinases [18]; 10 nM compound + 10 µM FKBP12): 0
DYRK2 (LanthaScreen Binding) (476 purified kinases [19]; 10 nM compound): -6
DYRK2 (LanthaScreen Binding) (476 purified kinases [19]; 10 nM compound + 10 µM FKBP12): -4
PRKACA (PKA) (kinase profiling) (476 purified kinases [20]; 10 nM): 1
PRKACA (PKA) (kinase profiling) (476 purified kinases [20]; 10 nM + 10 µM FKBP12): 3
MAP2K6 (MKK6) S207E T211E (LanthaScreen Binding) (476 purified kinases [21]; 10 nM compound): -2
MAP2K6 (MKK6) S207E T211E (LanthaScreen Binding) (476 purified kinases [21]; 10 nM compound + 10 µM FKBP12): 2
FLT4 (VEGFR3) (kinase profiling) (476 purified kinases [22]; 10 nM): 7
FLT4 (VEGFR3) (kinase profiling) (476 purified kinases [22]; 10 nM + 10 µM FKBP12): 0
DMPK (LanthaScreen Binding) (476 purified kinases [23]; 10 nM compound): 1
DMPK (LanthaScreen Binding) (476 purified kinases [23]; 10 nM compound + 10 µM FKBP12): 4
SYK (kinase profiling) (476 purified kinases [24]; 10 nM): 6
SYK (kinase profiling) (476 purified kinases [24]; 10 nM + 10 µM FKBP12): 8
DCAMKL1 (DCLK1) (kinase profiling) (476 purified kinases [25]; 10 nM): 1
DCAMKL1 (DCLK1) (kinase profiling) (476 purified kinases [25]; 10 nM + 10 µM FKBP12): 4
RPS6KB1 (p70S6K) (kinase profiling) (476 purified kinases [26]; 10 nM): 5
RPS6KB1 (p70S6K) (kinase profiling) (476 purified kinases [26]; 10 nM + 10 µM FKBP12): 0
CAMK2D (CaMKII delta) (kinase profiling) (476 purified kinases [27]; 10 nM): 6
CAMK2D (CaMKII delta) (kinase profiling) (476 purified kinases [27]; 10 nM + 10 µM FKBP12): 11
MAP3K3 (MEKK3) (LanthaScreen Binding) (476 purified kinases [28]; 10 nM compound): 1
MAP3K3 (MEKK3) (LanthaScreen Binding) (476 purified kinases [28]; 10 nM compound + 10 µM FKBP12): 3
